Laboratory results: US20250289799A1, “PYRIMIDINE COMPOUND, METHOD FOR PREPARING SAME, AND PHARMACEUTICAL USE THEREOF” (JIANGSU YAHONG MEDITECH CO., LTD., priority 2022, published 2025)

What was measured:
MDA-MB-436 = assay: CTG experiment on cell activity (CellTiter-Glo, 7 days); type: cell-based; conditions: MDA-MB-436 cells, cultured for 7 days
Description: • 1. Object: USP1 inhibitors were screened on 96-well plate by CTG assay. • 2. Materials: • The cells used were MDA-MB-436 (manufacturer: Nanjing Cobioer Biotechnology Co., Ltd.), and the culture medium was DMEM. • CTG (CellTiter-Glo® Luminescent Cell Viability Assay kit) (Promega, Catalog No.: G7572) • 96-well plate (Corning, Catalog No.: 3610) • 3. Compounds: • All compounds were dissolved in 100% DMSO to obtain 50 mM stock solutions. • 4. Experimental methods:
The cells to be tested were spread into a 96-well plate at a certain density at 200 μL per well, and 200 μL of cell culture medium was added to the blank well. The spread cell plate was placed in a 37° C. incubator.
The compound was diluted to different concentrations with 100% DMSO, and the final concentration of DMSO was 4%.
The compound formulated in (2) was added to the cell plate of (1) (10 μL per well). The cell plate with the compound added was placed in a 37° C. incubator, and cultured for 7 days before assay.
The substrate and buffer of the CTG kit were mixed evenly. The cell plate with the compound added in (3) was taken out from the incubator, and placed at room temperature for 30 minutes. The compound-containing culture medium in the cell plate was removed, 100 μL of PBS and 50 μL of CTG reagent were added to each well. The mixture in each well was mixed and shaked for 3 minutes, and then incubated at room temperature for 10 minutes. The plate was read by BIotek microplate reader, and the parameter was 567 CPM. • 5. Curve fitting • Same as enzyme assay.

[1] = target: Recombinant human His6-USP1/His6-UAF1 complex protein (Homo sapiens (Human), UniProt O94782); assay: In vitro , fluorescence detection with Ub-Rho substrate; type: biochemical
Sequence of Recombinant human His6-USP1/His6-UAF1 complex protein (O94782 whole entry): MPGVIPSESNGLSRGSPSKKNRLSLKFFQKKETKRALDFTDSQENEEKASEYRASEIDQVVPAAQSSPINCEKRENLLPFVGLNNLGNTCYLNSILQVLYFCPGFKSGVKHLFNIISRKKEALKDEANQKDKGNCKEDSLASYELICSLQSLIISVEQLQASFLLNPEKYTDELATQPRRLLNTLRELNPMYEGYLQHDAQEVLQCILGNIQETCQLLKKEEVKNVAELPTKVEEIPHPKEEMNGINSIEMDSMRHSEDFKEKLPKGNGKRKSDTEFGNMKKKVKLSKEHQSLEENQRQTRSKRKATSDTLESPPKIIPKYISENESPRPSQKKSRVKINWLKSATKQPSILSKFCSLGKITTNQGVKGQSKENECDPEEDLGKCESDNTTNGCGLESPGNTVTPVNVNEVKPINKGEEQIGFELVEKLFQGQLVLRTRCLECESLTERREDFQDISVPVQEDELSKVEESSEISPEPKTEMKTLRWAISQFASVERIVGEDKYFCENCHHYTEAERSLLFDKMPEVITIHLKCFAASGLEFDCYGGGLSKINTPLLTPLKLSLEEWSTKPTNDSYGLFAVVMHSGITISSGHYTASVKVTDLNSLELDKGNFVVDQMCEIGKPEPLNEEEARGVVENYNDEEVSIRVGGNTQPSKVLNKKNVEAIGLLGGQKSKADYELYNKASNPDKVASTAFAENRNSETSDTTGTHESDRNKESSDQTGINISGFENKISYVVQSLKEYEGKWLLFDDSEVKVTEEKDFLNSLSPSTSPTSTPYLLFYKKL
Sequence of Recombinant human His6-USP1/His6-UAF1 complex protein (Q8TAF3 whole entry partner): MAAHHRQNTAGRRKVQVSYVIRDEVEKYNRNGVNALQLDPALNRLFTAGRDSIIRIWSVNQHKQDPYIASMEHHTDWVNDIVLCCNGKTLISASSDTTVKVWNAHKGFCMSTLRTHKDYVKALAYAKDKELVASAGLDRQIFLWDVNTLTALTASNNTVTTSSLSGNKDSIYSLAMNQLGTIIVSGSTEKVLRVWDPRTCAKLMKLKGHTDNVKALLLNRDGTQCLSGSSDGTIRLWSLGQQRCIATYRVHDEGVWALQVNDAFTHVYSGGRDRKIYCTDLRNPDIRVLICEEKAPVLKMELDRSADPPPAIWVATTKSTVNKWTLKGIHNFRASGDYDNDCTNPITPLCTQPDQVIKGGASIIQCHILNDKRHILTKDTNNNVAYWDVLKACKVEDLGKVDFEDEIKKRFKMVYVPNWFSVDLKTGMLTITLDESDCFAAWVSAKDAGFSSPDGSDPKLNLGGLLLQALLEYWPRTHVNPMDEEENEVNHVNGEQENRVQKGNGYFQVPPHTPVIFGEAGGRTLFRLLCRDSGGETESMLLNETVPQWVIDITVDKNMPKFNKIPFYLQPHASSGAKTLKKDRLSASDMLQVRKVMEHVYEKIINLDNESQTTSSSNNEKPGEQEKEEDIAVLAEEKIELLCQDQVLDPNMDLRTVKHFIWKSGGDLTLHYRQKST
Description: Experimental object: The USP1 […] inhibitory activity of the compounds was screened by fluorescence detection method using 384-well plates.
Experimental materials: Recombinant human His6-USP1/His6-UAF1 complex protein (R&D, Catalog No.: E-568-050), ubiquitin rhodamine 110 protein (Ub-Rho) (R&D, Catalog No.: U-555-050), 384-well plate (Perkin Elmer, Catalog No.: 6007279); all compounds were dissolved in 100% DMSO to obtain a 50 mM stock solution.
• 1) Preparation of 1× assay buffer: 1× assay buffer (modified Tris buffer) was prepared; • 2) Compound dilution: The compound was transferred to the assay plate by Echo. The final concentration of DMSO is 1%; • 3) Preparation of enzyme solution: Recombinant human His6-USP1/His6-UAF1 complex protein was added to 1× assay buffer to obtain an enzyme solution; • 4) Preparation of substrate solution: Ubiquitin rhodamine 110 protein CF (Ub-Rho) was added to 1× assay buffer to obtain a substrate solution; • 5) 10 μL enzyme solution was transferred to the assay plate, and 10 μL 1× assay buffer was added to the control well; • 6) The plate was incubated at room temperature for 1 hour; • 7) 10 μL substrate solution was added to each well to start the reaction, and the plate was centrifuged for 30 seconds, and shaked for 30 seconds; • 8) The plate was read with Envision after 30 minutes, and the parameters were excitation light 480 nm and emission light 540 nm; • 9) The data was collected and summarized; • 10) Curve fitting: The data was fitted in Excel, Inhibition rate formula: Percent inhibition rate=(maximum value−signal value)/(maximum value−minimum value)×100; the data was fitted in XL-Fit, • Half inhibition concentration formula: Percent inhibition rate=minimum concentration+(maximum concentration−minimum concentration)/(1+(half inhibition concentration/compound concentration)^slope); • Half inhibition concentration is referred to as IC50 hereinafter.

SMILES	IC50 (MDA-MB-436; Homo sapiens, 168 h) [nM]	further results
COc1ncnc(C2CC2)c1-c1nc(NCc2ccc(-c3ccccn3)cc2)c2[nH]ccc2n1 [Example 37, 2-(4-Cyclopropyl-6-methoxypyrimidin-5-yl)-N-(4-(pyridin-2-yl)benzyl)-5H-pyrrolo[3,2-d]pyrimidin-4-amine]	> 5000	–
CC(C)c1ccccc1-c1ncc2c(n1)N(C[C@H]1CC[C@H](c3nc(C(F)(F)F)cn3C)CC1)CCO2 [Compound 13, 2-(2-Isopropylphenyl)-8-(((1R,4R)-4-(1-methyl-4-(trifluoromethyl)-1H-imidazol-2-yl)cyclohexyl)methyl)-7,8-dihydro-6H-pyrimido[5,4-b][1,4]oxazine]	–	IC50 [1]: 1.9 nM
COc1ncnc(C2CC2)c1-c1nc(NCc2ccc(OC3CC(OC)C3)cc2)c2occc2n1 (centres unmarked) [Example 118, 2-(4-Cyclopropyl-6-methoxypyrimidin-5-yl)-N-(4-(3-methoxycyclobutoxy)benzyl)furo[3,2-d]pyrimidin-4-amine]	1490	–
COC1CC(Oc2ccc(CNc3nc(-c4ccccc4C(C)C)nc4ccoc34)cc2)C1 (centres unmarked) [Example 80, 2-(2-Isopropylphenyl)-N-(4-(3-methoxycyclobutoxy)benzyl)furo[3,2-d]pyrimidin-4-amine]	> 5000	–
COc1cnc(-c2c(OC)ncnc2C2CC2)nc1NCC12C3C4C1C1C2C3C41c1nc(C(F)(F)F)cn1C (centres unmarked) [Example 215]	–	IC50 [1]: 2.2 nM; IC50 (MDA-MB-436): 8.7 nM
COc1cnc(-c2c(C)ncn2C(C)C)nc1NCC12CCC(c3ccc(C(F)(F)F)cn3)(CC1)CC2 [Example 148, 2-(1-Isopropyl-4-methyl-1H-imidazol-5-yl)-5-methoxy-N-((4-(5-(trifluoromethyl)pyridin-2-yl)bicyclo[2.2.2]octan-1-yl)methyl)pyrimidin-4-amine]	–	IC50 [1]: 1050 nM
COc1ncnc(C2CC2)c1-c1ncc2c(n1)N(CC1CCC(c3nc(C(F)(F)F)cn3C)CC1)CCO2 (centres unmarked) [Compound 22, 2-(4-Cyclopropyl-6-methoxypyrimidin-5-y1)-8-(((1r,4r)-4-(1-methyl-4-(trifluoromethyl)-1H-imidazol-2-yl)cyclohexyl)methyl)-7,8-dihydro-6H-pyrimido[5,4-b][1,4]oxazine]	209	–
COc1cnc(-c2ccccc2C(C)C)nc1NCC1CCC(c2nc(C(F)(F)F)cn2C)CC1 [Compound 6, 2-(2-Isopropylphenyl)-5-methoxy-N-(((1R,4R)-4-(1-methyl-4-(trifluoromethyl)-1H-imidazol-2-yl)cyclohexyl)methyl)pyrimidin-4-amine]	2	–
COc1ncnc(C2CC2)c1-c1nc(NCc2ccc(-c3ccccn3)cc2)c2occc2n1 [Example 34, 2-(4-Cyclopropyl-6-methoxypyrimidin-5-y1)-N-(4-(pyridin-2-yl)benzyl)furo[3,2-d]pyrimidin-4-amine]	–	IC50 [1]: 6.9 nM
CC(C)c1ccccc1-c1ncc2c(n1)N(C[C@H]1CC[C@@H](c3nc(C(F)(F)F)cn3C)CC1)CCO2 [Compound 14, 2-(2-Isopropylphenyl)-8-(((1s,4s)-4-(1-methyl-4-(trifluoromethyl)-1H-imidazol-2-yl)cyclohexyl)methyl)-7,8-dihydro-6H-pyrimido[5,4-b][1,4]oxazine]	–	IC50 [1]: 60 nM
COc1cnc(-c2ccccc2C(C)C)nc1N(C)Cc1ccc(-c2ccccn2)cc1 [Compound 1, 2-(2-isopropylphenyl)-5-methoxy-N-methyl-N-(4-(pyridin-2-yl)benzyl)pyrimidin-4-amine]	1270	–

More lines, main results first:

IC50 (MDA-MB-436; Homo sapiens, 168 h) [nM]	SMILES	further results
> 5000	COc1ncnc(C2CC2)c1-c1ncc(OC(C)C)c(NCC23CCC(c4ccc(C(F)(F)F)cn4)(CC2)CC3)n1 [Example 112, 4′-Cyclopropyl-5-isopropoxy-6′-methoxy-N-((4-(5-(trifluoromethyl)pyridin-2-yl)bicyclo[2.2.2]octan-1-yl)methyl)-[2,5′-bipyrimidin]-4-amine]	–
1170	COc1cnc(-c2ccccc2C(C)C)nc1NCc1ccc(OCc2ccccn2)cc1 [Example 67, 2-(2-Isopropylphenyl)-5-methoxy-N-(4-(pyridin-2-ylmethoxy)benzyl)pyrimidin-4-amine]	–
1800	CC(C)c1ccccc1-c1nc(NCc2ccc3c(c2)CCN(C)C3=O)c2occc2n1 [Example 77, 6-(((2-(2-Isopropylphenyl)furo[3,2-d]pyrimidin-4-yl)amino)methyl)-2-methyl-3,4-dihydroisoquinolin-1(2H)-one]	–
> 5000	CC(C)c1ccccc1-c1nc(NCc2ccc3c(c2)CCN(C(C)C)C3=O)c2occc2n1 [Example 78, 2-Isopropyl-6-(((2-(2-isopropylphenyl)furo[3,2-d]pyrimidin-4-yl)amino)methyl)-3,4-dihydroisoquinolin-1(2H)-one]	–
> 5000	COc1ncnc(C2CC2)c1-c1nc(NCc2ccc3c(c2)CCN(C)C3=O)c2occc2n1 [Example 114, 6-(((2-(4-Cyclopropyl-6-methoxypyrimidin-5-yl)furo[3,2-d]pyrimidin-4-yl)amino)methyl)-2-methyl-3,4-dihydroisoquinolin-1(2H)-one]	–
1670	COc1cnc(-c2cccc3ccn(C)c23)nc1NCc1ccc(-n2nc(C(F)(F)F)cc2C)cc1 [Example 144, 5-Methoxy-2-(1-methyl-1H-indol-7-yl)-N-(4-(5-methyl-3-(trifluoromethyl)-1H-pyrazol-1-yl)benzyl)pyrimidin-4-amine]	–
2650	CC(C)c1ccccc1-c1ncc(N2CCOCC2)c(NCc2ccc(-c3nc(C(F)(F)F)cn3C)cc2)n1 [Example 87, 2-(2-Isopropylphenyl)-N-(4-(1-methyl-4-(trifluoromethyl)-1H-imidazol-2-yl)benzyl)-5-morpholinopyrimidin-4-amine]	–
1610	COc1ncnc(C2CC2)c1-c1nc(NCc2ccc3c(c2)CCN(C(C)C)C3=O)c2occc2n1 [Example 115, 6-(((2-(4-Cyclopropyl-6-methoxypyrimidin-5-yl)furo[3,2-d]pyrimidin-4-yl)amino)methyl)-2-isopropyl-3,4-dihydroisoquinolin-1(2H)-one]	–
1440	COc1cnc(-c2cccc3ccn(C)c23)nc1NCc1ccc(-c2nc(C(F)(F)F)cn2C)cc1 [Example 143, 5-Methoxy-2-(1-methyl-1H-indol-7-yl)-N-(4-(1-methyl-4-(trifluoromethyl)-1H-imidazol-2-yl)benzyl)pyrimidin-4-amine]	–
1210	CCOCCOc1ccc(CNc2nc(-c3ccccc3C(C)C)nc3ccoc23)cc1 [Example 79, N-(4-(2-Ethoxyethoxy)benzyl)-2-(2-isopropylphenyl)furo[3,2-d]pyrimidin-4-amine]	–
1060	COc1cnc(-c2cccc3c2N(C)CC3)nc1NCc1ccc(-n2ncc(C(F)(F)F)c2C)cc1 [Example 146, 5-Methoxy-N-(4-(5-methyl-4-(trifluoromethyl)-1H-pyrazol-1-yl)benzyl)-2-(1-methylindolin-7-yl)pyrimidin-4-amine]	–
